Source: the supplement of paper PMC10307832

What was measured:
Assay in all cases: relative viability (nuclei count vs DMSO), 5 days (fraction); higher = more cells survive
[1] = system: NCI-H650
Method in brief: (§1)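 Relative viability equals treated-well nuclei counts divided by vehicle-well nuclei counts. Counts came from 4× images of lung cancer cell lines grown in 1536-well plates for 5 days after pin-tool dosing on the day after seeding. Dosing used one drug alone or a fixed anchor-drug dose plus five library-drug doses (not always all listed) in √10 steps, and values are medians of duplicate plates.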

[2] = system: NCI-H2405
Method in brief: as §1

[3] = system: COR-L23
Method in brief: as §1

[4] = system: NCI-H520
Method in brief: as §1

[5] = system: LU99A
Method in brief: as §1

[6] = system: NCI-H2085
Method in brief: as §1

[7] = system: H3255
Method in brief: as §1

[8] = system: SK-MES-1
Method in brief: as §1

[9] = system: NCI-H2087
Method in brief: as §1

[10] = system: HCC-44
Method in brief: as §1

[11] = system: NCI-H2023
Method in brief: as §1

[12] = system: NCI-H1651
Method in brief: as §1

[13] = system: NCI-H1563
Method in brief: as §1

[14] = system: ChaGo-K-1
Method in brief: as §1

[15] = system: NCI-H1944
Method in brief: as §1

[16] = system: HCC-827
Method in brief: as §1

[17] = system: LCLC-103H
Method in brief: as §1

[18] = system: EMC-BAC-2
Method in brief: as §1

[19] = system: NCI-H838
Method in brief: as §1

[20] = system: EPLC-272H
Method in brief: as §1

For COc1nc(C)cnc1NS(=O)(=O)c1cccnc1-c1ccc(-c2nnco2)cc1 [Zibotentan] + C[C@@H](Oc1cc(-c2cnn(C3CCNCC3)c2)cnc1N)c1c(Cl)ccc(F)c1Cl [Crizotinib] (partner 1 µM), the relative viability ([1]; first compound 0.08 µM) was 0.856, the relative viability ([1]; first compound 0.253 µM) was 0.661 and the relative viability ([1]; first compound 0.8 µM) was 0.705. The relative viability ([1]; first compound 2.53 µM) was 0.792, the relative viability ([2]; first compound 0.08 µM) was 0.907 and the relative viability ([2]; first compound 0.253 µM) was 0.882. It also gave a relative viability ([2]; first compound 0.8 µM) of 0.789, a relative viability ([2]; first compound 2.53 µM) of 0.881 and a relative viability ([3]; first compound 0.08 µM) of 0.838. The relative viability ([3]; first compound 0.253 µM) was 0.65, the relative viability ([3]; first compound 0.8 µM) was 0.68 and the relative viability ([3]; first compound 2.53 µM) was 0.758. It also gave a relative viability ([4]; first compound 0.08 µM) of 0.857, a relative viability ([4]; first compound 0.253 µM) of 0.747 and a relative viability ([4]; first compound 0.8 µM) of 0.798. It also gave a relative viability ([4]; first compound 2.53 µM) of 0.893, a relative viability ([5]; first compound 0.08 µM) of 0.537 and a relative viability ([5]; first compound 0.253 µM) of 0.527. It also gave a relative viability ([5]; first compound 0.8 µM) of 0.645, a relative viability ([5]; first compound 2.53 µM) of 0.617 and a relative viability ([6]; first compound 0.08 µM) of 1.03. For the same compound, the relative viability ([6]; first compound 0.253 µM) was 0.815, the relative viability ([6]; first compound 0.8 µM) was 0.938 and the relative viability ([6]; first compound 2.53 µM) was 0.925. For the same compound, the relative viability ([7]; first compound 0.08 µM) was 0.846, the relative viability ([7]; first compound 0.253 µM) was 0.841 and the relative viability ([7]; first compound 0.8 µM) was 0.975. It also gave a relative viability ([7]; first compound 2.53 µM) of 0.963, a relative viability ([8]; first compound 0.08 µM) of 1.12 and a relative viability ([8]; first compound 0.253 µM) of 1.02. The relative viability ([8]; first compound 0.8 µM) was 0.969, the relative viability ([8]; first compound 2.53 µM) was 0.932 and the relative viability ([9]; first compound 0.08 µM) was 0.881. For the same compound, the relative viability ([9]; first compound 0.253 µM) was 1.07, the relative viability ([9]; first compound 0.8 µM) was 0.984 and the relative viability ([9]; first compound 2.53 µM) was 0.928. For the same compound, the relative viability ([10]; first compound 0.08 µM) was 0.777, the relative viability ([10]; first compound 0.253 µM) was 0.761 and the relative viability ([10]; first compound 0.8 µM) was 0.872. The relative viability ([10]; first compound 2.53 µM) was 0.772, the relative viability ([11]; first compound 0.08 µM) was 0.605 and the relative viability ([11]; first compound 0.253 µM) was 0.475. The relative viability ([11]; first compound 0.8 µM) was 0.72, the relative viability ([11]; first compound 2.53 µM) was 0.631 and the relative viability ([12]; first compound 0.08 µM) was 0.962. For the same compound, the relative viability ([12]; first compound 0.253 µM) was 0.823, the relative viability ([12]; first compound 0.8 µM) was 0.837 and the relative viability ([12]; first compound 2.53 µM) was 0.862. The relative viability ([13]; first compound 0.08 µM) was 0.821, the relative viability ([13]; first compound 0.253 µM) was 0.512 and the relative viability ([13]; first compound 0.8 µM) was 0.874. The relative viability ([13]; first compound 2.53 µM) was 0.895, the relative viability ([14]; first compound 0.08 µM) was 1.33 and the relative viability ([14]; first compound 0.8 µM) was 1.09. The relative viability ([14]; first compound 2.53 µM) was 1.21, the relative viability ([15]; first compound 0.08 µM) was 1.26 and the relative viability ([15]; first compound 0.253 µM) was 1.08. It also gave a relative viability ([15]; first compound 0.8 µM) of 1.06, a relative viability ([15]; first compound 2.53 µM) of 1.06 and a relative viability ([16]; first compound 0.08 µM) of 0.944. It also gave a relative viability ([16]; first compound 0.253 µM) of 0.955, a relative viability ([16]; first compound 0.8 µM) of 0.946 and a relative viability ([16]; first compound 2.53 µM) of 0.987. It also gave a relative viability ([17]; first compound 0.08 µM) of 0.932, a relative viability ([17]; first compound 0.253 µM) of 0.965 and a relative viability ([17]; first compound 0.8 µM) of 0.97. It also gave a relative viability ([17]; first compound 2.53 µM) of 1.05, a relative viability ([18]; first compound 0.08 µM) of 0.843 and a relative viability ([18]; first compound 0.253 µM) of 0.751. It also gave a relative viability ([18]; first compound 0.8 µM) of 0.778, a relative viability ([18]; first compound 2.53 µM) of 0.754 and a relative viability ([19]; first compound 0.08 µM) of 0.918. The relative viability ([19]; first compound 0.253 µM) was 0.826, the relative viability ([19]; first compound 0.8 µM) was 0.82 and the relative viability ([19]; first compound 2.53 µM) was 0.848. The relative viability ([20]; first compound 0.08 µM) was 0.841, the relative viability ([20]; first compound 0.253 µM) was 0.841 and the relative viability ([20]; first compound 0.8 µM) was 1.38. It also gave a relative viability ([20]; first compound 2.53 µM) of 0.951.

CCN(CC)CCCCNc1ncc2cc(-c3cc(OC)cc(OC)c3)c(NC(=O)NC(C)(C)C)nc2n1 + CC(C)C[C@H](NC(=O)[C@H](Cc1ccccc1)NC(=O)c1cnccn1)B(O)O [Bortezomib] (partner 0.002 µM) showed a relative viability ([1]; first compound 0.01 µM) of 0.701, a relative viability ([1]; first compound 0.03162 µM) of 0.787 and a relative viability ([1]; first compound 0.1 µM) of 1.1. It also gave a relative viability ([1]; first compound 0.3162 µM) of 0.921, a relative viability ([1]; first compound 1 µM) of 0.678 and a relative viability ([2]; first compound 0.01 µM) of 0.973. The relative viability ([2]; first compound 0.03162 µM) was 0.866, the relative viability ([2]; first compound 0.1 µM) was 1.05 and the relative viability ([2]; first compound 0.3162 µM) was 1.04. For the same compound, the relative viability ([2]; first compound 1 µM) was 0.982, the relative viability ([3]; first compound 0.01 µM) was 1.19 and the relative viability ([3]; first compound 0.03162 µM) was 1.3. For the same compound, the relative viability ([3]; first compound 0.1 µM) was 1.13, the relative viability ([3]; first compound 0.3162 µM) was 1.13 and the relative viability ([3]; first compound 1 µM) was 1.01. The relative viability ([4]; first compound 0.01 µM) was 0.787, the relative viability ([4]; first compound 0.03162 µM) was 0.442 and the relative viability ([4]; first compound 0.1 µM) was 0.938. The relative viability ([4]; first compound 0.3162 µM) was 0.461, the relative viability ([4]; first compound 1 µM) was 0.244 and the relative viability ([5]; first compound 0.01 µM) was 1.03. For the same compound, the relative viability ([5]; first compound 0.03162 µM) was 1.16, the relative viability ([5]; first compound 0.1 µM) was 1.34 and the relative viability ([5]; first compound 0.3162 µM) was 1.23. For the same compound, the relative viability ([5]; first compound 1 µM) was 1.13, the relative viability ([6]; first compound 0.01 µM) was 0.991 and the relative viability ([6]; first compound 0.03162 µM) was 1.03. It also gave a relative viability ([6]; first compound 0.1 µM) of 1.09, a relative viability ([6]; first compound 0.3162 µM) of 1.15 and a relative viability ([6]; first compound 1 µM) of 0.999. It also gave a relative viability ([7]; first compound 0.01 µM) of 0.762, a relative viability ([7]; first compound 0.03162 µM) of 0.773 and a relative viability ([7]; first compound 0.1 µM) of 1.02. For the same compound, the relative viability ([7]; first compound 0.3162 µM) was 1.21, the relative viability ([7]; first compound 1 µM) was 0.656 and the relative viability ([9]; first compound 0.01 µM) was 0.85. For the same compound, the relative viability ([9]; first compound 0.03162 µM) was 0.909, the relative viability ([9]; first compound 0.1 µM) was 1.08 and the relative viability ([9]; first compound 0.3162 µM) was 1.04. The relative viability ([9]; first compound 1 µM) was 0.689, the relative viability ([10]; first compound 0.01 µM) was 0.908 and the relative viability ([10]; first compound 0.03162 µM) was 0.883. It also gave a relative viability ([10]; first compound 0.1 µM) of 1.08, a relative viability ([10]; first compound 0.3162 µM) of 1.03 and a relative viability ([10]; first compound 1 µM) of 0.896. For the same compound, the relative viability ([11]; first compound 0.01 µM) was 0.925, the relative viability ([11]; first compound 0.03162 µM) was 1.08 and the relative viability ([11]; first compound 0.1 µM) was 1.16. For the same compound, the relative viability ([11]; first compound 0.3162 µM) was 1.13, the relative viability ([11]; first compound 1 µM) was 0.968 and the relative viability ([12]; first compound 0.01 µM) was 1. It also gave a relative viability ([12]; first compound 0.03162 µM) of 0.94, a relative viability ([12]; first compound 0.1 µM) of 1.06 and a relative viability ([12]; first compound 0.3162 µM) of 1.03. For the same compound, the relative viability ([12]; first compound 1 µM) was 0.902, the relative viability ([13]; first compound 0.01 µM) was 0.722 and the relative viability ([13]; first compound 0.03162 µM) was 0.847. The relative viability ([13]; first compound 0.1 µM) was 0.818, the relative viability ([13]; first compound 0.3162 µM) was 0.809 and the relative viability ([13]; first compound 1 µM) was 0.52. For the same compound, the relative viability ([14]; first compound 0.01 µM) was 1.08, the relative viability ([14]; first compound 0.03162 µM) was 1.14 and the relative viability ([14]; first compound 0.1 µM) was 1.28. It also gave a relative viability ([14]; first compound 0.3162 µM) of 1.27, a relative viability ([14]; first compound 1 µM) of 0.742 and a relative viability ([16]; first compound 0.01 µM) of 1.07. For the same compound, the relative viability ([16]; first compound 0.03162 µM) was 1, the relative viability ([16]; first compound 0.1 µM) was 1.09 and the relative viability ([16]; first compound 0.3162 µM) was 1.04. The relative viability ([16]; first compound 1 µM) was 1.05, the relative viability ([17]; first compound 0.01 µM) was 1.07 and the relative viability ([17]; first compound 0.03162 µM) was 1.06. The relative viability ([17]; first compound 0.1 µM) was 1.09, the relative viability ([17]; first compound 0.3162 µM) was 1.13 and the relative viability ([17]; first compound 1 µM) was 0.945. It also gave a relative viability ([18]; first compound 0.01 µM) of 1.11, a relative viability ([18]; first compound 0.03162 µM) of 1.07 and a relative viability ([18]; first compound 0.1 µM) of 1.11. The relative viability ([18]; first compound 0.3162 µM) was 1.19, the relative viability ([18]; first compound 1 µM) was 1.04 and the relative viability ([19]; first compound 0.01 µM) was 0.793. The relative viability ([19]; first compound 0.03162 µM) was 0.732, the relative viability ([19]; first compound 0.1 µM) was 0.96 and the relative viability ([19]; first compound 0.3162 µM) was 0.9. The relative viability ([19]; first compound 1 µM) was 0.579, the relative viability ([20]; first compound 0.01 µM) was 1.02 and the relative viability ([20]; first compound 0.1 µM) was 0.921. For the same compound, the relative viability ([20]; first compound 0.3162 µM) was 1.03 and the relative viability ([20]; first compound 1 µM) was 0.796.
